Earlier results, collected in patent US20120189710A1, “ANTIBACTERIAL COMPOSITIONS” (priority 2009, published 2012).

water solubility: water soluble
Compound: C=CCSC[C@H](N)C(=O)O [SAC, S-allyl cysteine]
